# Reference: US5972636A (priority 1997, dated 1999)
# Read-outs that look alike come from different tables or passages of the source.
# Experiments:
# [1] = target: T1, proteasome from skeletal muscle (Oryctolagus cuniculus, UniProt G1T4Q9); assay type: biochemical, rabbit
# T1 construct: from tissue; host or cells: rabbit skeletal (psoas) muscle, proteasome fraction after Mono Q and Superose 6
# [2] = tested on: 1500 kDa complex (proteasome-multipain); settings: for Realtive Activity (%) Complex, Ub-lysozyme degradation: 2 mM of the nucleotide or 10 mM PPi
# [3] = tested on: new protease (multipain) from skeletal muscle; settings: for Relative activity (%) NEW […] Ub-lysozyme / Relative activity (%) NEW […] OH/O2 - treated hemoglobin / Relative activity (%) NEW […] lysozyme: Table IV, 37° C. 1 h; for Relative activity (%) NEW […] Ub-lysozyme: DFP 1 mM, Cystatin A 4 uM, Hemin 0.1 mM, NEM 1 mM, Leupeptin 0.1 mM, E64 0.1 mM, NaOleate 0.125 mM, SDS 0.01%, o-Phenanthroline 0.1 mM; for Relative activity (%) NEW […] OH/O2 - treated hemoglobin / Relative activity (%) NEW […] lysozyme: concentrations as in E1; for effect on Ub-conjugate breakdown by the new protease (multipain), in words: text; for Relative activity (%), degradation of Ub-125I-lysozyme by the new activity: 2 mM of the nucleotides or 10 mM PPi, 37° C. 1 hour
# [4] = tested on: proteasome-multipain complex formation; assay type: biochemical, rabbit
# [5] = tested on: fraction II (ATP-dependent degradative system); assay: Hydrolysis of Ub-125I-lysozyme by muscle fraction II; assay type: biochemical, rabbit
# Protocol: All enzymatic assays were linear, except where noted (see below). When present, ATP was 2 mM in assays. Unless otherwise stated, in all assays, 50 μl aliquots of the fraction from the column or of the purified protease (10 μg)were incubated in 200 μl containing 50 mM TRIS-HCl (pH 7.8), 10 mM MgCl2, 1 mM DTT, and 5 μg of the radioactive proteins, 0.5 μg of Ub-conjugates, or 0.5 mM of the fluorogenic peptide. For assays of proteolysis, the reaction mixtures contained approximately 15,000 cpm of Ub-lysozyme or labeled proteins. Degradation of ^125 I-lysozyme, Ub-^125 I-lysozyme, ^14 C-casein, ^14 C-hemoglobin and OH/O2^- treated ^14 C-hemoglobin were assayed by measuring the production of acid-soluble radioactivity after 60 min of incubation at 37° C. Ub-^125 I-lysozyme was prepared using liver fraction II, according to the method of Hough and Rechsteiner. Hough et al., J. Biol. Chem. 261:2400-2408 (1986), Hough, R. and Rechsteiner, M. J. Biol. Chem. 261:2391-2399 (1986). ^125 I-lysozyme and Ub were prepared as described previously. Waxman et al., J. Biol. Chem. 262:2451-2457 (1987), Fagan et al., BioChem. J. 243:335-343 (1987). The concentration of conjugates was calculated based on the specific radioactivity of the ^125 I-lysxozyme used for conjugate synthesis. One unit of sLLVT-MCA represents 10 nmol of MCA produced in 30 min. […]
# [6] = tested on: ATP-ubiquitin-dependent proteolytic system; assay: ATP-ubiquitin-activated proteolysis in extracts (Fraction II) of psoas muscle; assay type: biochemical, rabbit
# Text: Psoas muscles from fed and fasted rabbits were used to obtain sufficient material for assay of the ATP-dependent system in cell-free extracts. Fasted rabbits were deprived of food for sufficient time to cause a weight loss of about 20% (similar to that seen in rats deprived of food for 1 day). The animals were anesthesized, and their psoas muscles dissected and homogenized as described previously. Fagan, J. M., et al., J. Biol. Chem., 261: 5705-5713 (1986).
# After centrifugation at 10,000×g and then at 100,000×g, the muscle extracts were fractionated on DE52 cellulose to remove ubiquitin and most cell proteins, as described previously. Han, H. Q. et al., Federation Proc, 2:A564 (1988) and Waxman, L., et al., J. Biol. Chem., 262:2451-2457 (1987). The fraction containing the ATP-ubiquitin-dependent proteolytic system (Herskho, A., J. Biol. Chem., 263:15237-15240 (1988); Rechsteiner, M., Ann. Rev. Cell Biol., 3:1-30 (1987) and Fagan, J. M., et al. Biochem J., 243:335-343 (1987)) was eluted with 0.5M NaCl ("Fraction II"), dialyzed against a buffer containing Tris (50 mM, pH7.8), dithiothreitol (1 mM), and 20% glycerol, and concentrated before assay of activity. Degradation of endogenous muscle proteins was assayed by measuring the production of free tyrosine, which was determined fluorometrically after precipitation of proteins with trichloroacetic acid. Tischler, M. et al., J. Biol, Chem., 257:1613-1621 (1982) and Fulks, R., et al., J. Biol. Chem., 250:290-298 (1975). In addition, the degradation of ^14 C-casein was assayed by measuring the production of acid-soluble radioactivity. Waxman, L., et al., J. Biol. Chem., 262:2451-2457 (1987) and Fagan, J. M., Biochem J., 243:335-343 (1987).
# [7] = Table VII, None = 100, 2 mM ATP, DFP 1 mM, Cystatin 4 μM, NEM 1 mM, Leupeptin 100 μM, E-64 100 μM, Sodium oleate 125 μM, SDS 0.01%, o-Phenanthroline 100 μM
# [8] = Table VII, substrate Ub-125I-lysozyme, None = 100, 2 mM ATP, concentrations as in E5
Structure (SMILES),Realtive Activity (%) Proteasome (sLLVT-MCA) [1] [%],Relative activity (%) […]-MCA [1] [%],"Realtive Activity (%) Complex (Ub-125I-Lysozyme) [2, 7] [%]","Relative activity (%) NEW […] Ub-lysozyme ([3]; None = 100, 2 mM ATP) [%]","Relative activity (%) NEW […] OH/O2 - treated hemoglobin ([3]; None = 100, 2 mM ATP) [%]","Relative activity (%) NEW […] lysozyme ([3]; None = 100, 2 mM ATP) [%]","Realtive Activity (%) Multipain [3, 8] [%]","effect on Ub-conjugate breakdown by the new protease (multipain), in words [3]",also measured
"CCCCCCCC/C=C\CCCCCCCC(=O)[O-].[Na+] [NaOleate, Sodium oleate]",179,179,38,29,40,34,29,,
c1cnc2c(c1)ccc1cccnc12 [o-Phenanthroline],60,60,57,48,54,55,48,showed some inhibition,inhibition of conjugate breakdown by the complex ([2]; Table VII): about 60%
"CCN1C(=O)C=CC1=O [NEM, N-ethylmaleimide]",37,37,33,29,30,27,29,strongly inhibited this activity,inhibition of conjugate breakdown by the complex ([2]; Table VII): 65%
CC(=O)N[C@@H](CC(C)C)C(=O)N[C@@H](CC(C)C)C(=O)N[C@H](C=O)CCCNC(=N)N [Leupeptin],83,83,75,69,73,72,69,,"effect on the complex, in words ([2]; Table VII): did not show any significant effect on the complex; inhibition of Ub-conjugate breakdown by the new protease ([3]; cystatin B at concentrations similar to cystatin A): 30%"
"Nc1ncnc2c1ncn2[C@@H]1O[C@H](COP(=O)(O)OP(=O)(O)NP(=O)(O)O)[C@@H](O)[C@H]1O [AMP-PNP, adenyl 5'-oyl-imidodiphosphate]",,,,,,,,,"effect of nucleotides on Ub-125I-lysozyme hydrolysis by the complex, in words ([2]; Table VIII): No stimulation; Realtive Activity (%) Complex, Ub-lysozyme degradation ([2]; Table VIII, None = 100): 109%; effect on formation of the proteasome-multipain complex, in words [4]: completely prevented complex formation; effect on degradation of Ub-conjugated proteins by fraction II, in words [5]: did not stimulate the degradation of Ub-conjugated proteins; effect of nucleotides on Ub-125I-lysozyme hydrolysis by the purified enzyme, in words ([3]; Table III): No stimulation; Relative activity (%), degradation of Ub-125I-lysozyme by the new activity ([3]; Table III, None = 100): 90%"
Nc1ncnc2c1ncn2[C@@H]1O[C@H](COP(=O)(O)CP(=O)(O)OP(=O)(O)O)[C@@H](O)[C@H]1O [AMP-CPP],,,,,,,,,"effect on degradation of Ub-conjugated proteins by fraction II, in words [5]: did not stimulate the degradation of Ub-conjugated proteins"
Nc1ncnc2c1ncn2[C@@H]1O[C@H](COP(=O)(O)OP(=O)(O)OP(=O)(O)O)[C@@H](O)[C@H]1O [ATP],,,,,,,,,"ATP concentration of maximal stimulation of conjugate degradation, 1500 kDa complex [2]: about 0.7 mM; stimulation of degradation of Ub-125I-lysozyme, 125I-lysozyme, sLLVT-MCA or casein by the complex ([2]; 1500 kda proteasome-multipain complex): 3-5 fold; Realtive Activity (%) Complex, Ub-lysozyme degradation ([2]; Table VIII, None = 100): 458%; Km ([2]; read-out: Km for ATP, 1500 kDa complex, Ub-conjugate degradation): ≤ 300 µM; effect on formation of the proteasome-multipain complex, in words ([4]; DFP 1 mM or cystatin 4 μM preincubated 10 min, AMP-PNP in place of ATP): allowed formation of a 1300 kDa complex; 14C-Casein Hydrolysis [6]: 2.3 ± 0.2 ug casein hydrolyzed/1 hr; Hydrolysis of Endogenous Proteins ([6]; Fasted rabbits, No addition 2.0 ± 0.1, ATP 5 mM, ubiquitin 15 μM): 10.8 ± 2.1 nmol try released/2 hr; Hydrolysis of Endogenous Proteins ([6]; Fed rabbits, No addition 0.6 ± 0.1, ATP 5 mM, ubiquitin 15 μM): 5.7 ± 0.9 nmol try released/2 hr; 14C-Casein Hydrolysis ([6]; Fed rabbits, No addition 1.1 ± 0.2, ATP 5 mM, ubiquitin 15 μM): 1.5 ± 0.2 ug casein hydrolyzed/1 hr; stimulation of Ub-lysozyme hydrolysis by the new protease ([3]; ATP 2 mM where stated, 60 min): 5 fold; stimulation of lysozyme degradation by the new protease ([3]; ATP 2 mM where stated, 60 min): 3 fold; Relative activity (%), degradation of Ub-125I-lysozyme by the new activity ([3]; Table III, None = 100): 743%; Km ([3]; read-out: Km for ATP, multipain, Ub-conjugate degradation): ≤ 300 µM"
"CCCCCCCCCCCCOS(=O)(=O)[O-].[Na+] [SDS, sodium dodecyl sulfate]",125,125,,,42,46,,,Realtive Activity (%) Complex (Ub-125I-Lysozyme) [2]: 46%; Realtive Activity (%) Multipain [3]: 44%; Relative activity (%) NEW PROTEASE Ub-lysozyme [3]: 44%
CC(C)C[C@H](NC(=O)[C@H]1O[C@@H]1C(=O)O)C(=O)NCCCCNC(=N)N [E64],100,100,96,100,100,100,100,not at all,"effect on the complex, in words ([2]; Table VII): did not show any significant effect on the complex; effect on Ub-conjugate breakdown by the new protease (multipain), in words ([3]; listed as E-64): unable to inhibit multipain"
